Assay results as given in patent US20090131702A1, “METHOD FOR THE PRODUCTION OF METAL CARBOXYLATES AND THE METAL AMINOATE OR METAL HYDROXY ANALOGUE METHIONATE DERIVATIVES THEREOF, AND USE OF SAME AS GROWTH PROMOTERS IN ANIMAL FEED” (NOREL, S.A., priority 2003, published 2009).
Like-named read-outs stand apart in the source and are kept apart here. Marks after values point to notes of the source that are not given here.

Legend:
[1] = broilers, 150 ppm of zinc added to base diet
From the text: 160 one-day old broilers of the Ross strain were used (without differentiation of sexes), housed in cages in groups of 10 animals.
Control of production parameters was effected at 21 days of age, recording the live weight and the consumption of feed per batch.

[2] = Test of efficacy in piglets: production parameters, zinc glycinate / formate / complex (Example 14); assay type: in vivo; conditions: 21-50 days, 130 ppm of zinc added to base diet
From the text: The experimental period was 29 days.

[3] = Test in broilers: production parameters, zinc methioninate / formate / complex (Example 12); assay type: in vivo, broilers of the Ross strain; conditions: for MDC (mean daily consumption) / MDG (mean daily gain): 50 ppm of zinc added to base diet
From the text: Four experimental treatments were used, comprising the same basic diet supplemented with different sources of zinc:
Control of production parameters was effected at 21 and 42 days of age, recording the live weight and the consumption of feed per batch.

[4] = piglets, 220 ppm of zinc added to base diet
Protocol: 300 piglets were used (cross of Large White and Landrace), 50% males and 50% females, weaned at 21 days of age and housed in 30 pens with 10 animals in each (5 males and 5 females).
Five experimental treatments were used, comprising the same basic diet, to which different sources of zinc are added:
The zinc dose was calculated taking into account the zinc content of the ingredients of the feed and the maximum permitted dose (250 ppm of zinc in the finished feed) in the case of treatments T-0 to T-2, and the dose with promoter effect (2000 ppm) in the case of treatment T-3.
The experimental period was 21 days.
The experimental model was a design of random blocks, with 6 replications per treatment. Each replication comprised a batch of 10 animals.
(§1) Control of production parameters was effected at the end of the experiment, recording the live weight, the daily growth and the consumption of feed.

[5] = piglets, 21-41 days; 150 ppm of zinc added to base diet
Protocol: 24 piglets were used (Large White*Large White×Landrace), 50% males and 50% females, weaned at 21 days of age and housed in 4 pens with 6 animals in each (3 males and 3 females).
The zinc dose was calculated taking into account the zinc content of the ingredients and the maximum permitted dose (150 ppm) in all the treatments.
The experimental period was 20 days.
as §1

[6] = Zinc concentration in the liver of piglets (Example 11); assay type: in vivo; conditions: end of 21-day experiment, 220 ppm of zinc added to base diet
From the text: At the end of the experiment, one male and one female were selected at random from each batch to take a specimen of liver tissue and determine the zinc content.

[7] = broilers
[8] = 43 to 46 days of age, 50 ppm of zinc added to base diet

O=C[O-].O=C[O-].[Zn+2] [zinc formate, Zinc formate]
MDC (mean daily consumption) ([1]; 0-21 days): 47.5 g/day | MDG (mean daily gain) ([1]; 0-21 days): 37.6 b g | LW 21 d (live weight) ([1]; day 21): 790 b g | GLW 21-50 d (gain in live weight) [2]: 12.50 b kg | MDC (mean daily consumption) [2]: 752.3 g/day | MDG (mean daily gain) [2]: 431.0 b g | MDC (mean daily consumption) ([3]; 0-21 days): 48.3 g/day | MDG (mean daily gain) ([3]; 0-21 days): 35.2 b g | MDC (mean daily consumption) ([3]; 0-42 days): 100.4 g/day | MDG (mean daily gain) ([3]; 0-42 days): 55.0 b g | MDC (mean daily consumption) ([3]; 21-42 days): 152.5 g/day | MDG (mean daily gain) ([3]; 21-42 days): 74.8 b g | effect on production parameters (in words) ([3]; 50 ppm of zinc, control T-0 = zinc sulfate): same effect | LW 21 d (live weight) ([3]; day 21, 50 ppm of zinc added to base diet): 740 b g | LW 42 d (live weight) ([3]; day 42, 50 ppm of zinc added to base diet): 2310 b g | MDC (mean daily consumption) ([4]; 21-28 days): 312.3 g/day | MDG (mean daily gain) ([4]; 21-28 days): 268.6 B g | MDC (mean daily consumption) ([4]; 21-42 days): 752.3 g/day | MDG (mean daily gain) ([4]; 21-42 days): 512.6 b g | LW 28 d (live weight) ([4]; day 28): 8.76 ab kg | LW 42 d (live weight) ([4]; day 42): 14.30 b kg | GLW 21-41 d (gain in live weight) [5]: 8.00 b kg | MDC (mean daily consumption) [5]: 655.0 g/day | MDG (mean daily gain) [5]: 400.0 b g | Liver zinc [6]: 59.21a μg/g | Zinc excreted [7, 8]: 7.20^b mg | Zinc ingested [7, 8]: 13.3^a mg | zinc bioavailability (in words) ([7]; 50 ppm of zinc): highest bioavailability | Bioavailability ([7]; zinc, 43 to 46 days of age, 50 ppm of zinc added to base diet): 45.8^b %
